From ChEMBL document CHEMBL4673331 (J Med Chem, 2020)
Values after ≈ are worked out from the molar mass of the structure shown. Active and inactive are the calls of the source. No cut-off for these calls is given here.

What was measured:
[1] = molecular target: T1, Mucosa-associated lymphoid tissue lymphoma translocation protein 1 (Homo sapiens, UniProt Q9UDY8); assay: Allosteric inhibition of MALT1 in human OCI-LY3 cells assessed as reduction in BCL10 cleavage measured after 24 hrs by ELISA; assay type: cell-based, OCILY3
T1 sequence (Q9UDY8 whole entry): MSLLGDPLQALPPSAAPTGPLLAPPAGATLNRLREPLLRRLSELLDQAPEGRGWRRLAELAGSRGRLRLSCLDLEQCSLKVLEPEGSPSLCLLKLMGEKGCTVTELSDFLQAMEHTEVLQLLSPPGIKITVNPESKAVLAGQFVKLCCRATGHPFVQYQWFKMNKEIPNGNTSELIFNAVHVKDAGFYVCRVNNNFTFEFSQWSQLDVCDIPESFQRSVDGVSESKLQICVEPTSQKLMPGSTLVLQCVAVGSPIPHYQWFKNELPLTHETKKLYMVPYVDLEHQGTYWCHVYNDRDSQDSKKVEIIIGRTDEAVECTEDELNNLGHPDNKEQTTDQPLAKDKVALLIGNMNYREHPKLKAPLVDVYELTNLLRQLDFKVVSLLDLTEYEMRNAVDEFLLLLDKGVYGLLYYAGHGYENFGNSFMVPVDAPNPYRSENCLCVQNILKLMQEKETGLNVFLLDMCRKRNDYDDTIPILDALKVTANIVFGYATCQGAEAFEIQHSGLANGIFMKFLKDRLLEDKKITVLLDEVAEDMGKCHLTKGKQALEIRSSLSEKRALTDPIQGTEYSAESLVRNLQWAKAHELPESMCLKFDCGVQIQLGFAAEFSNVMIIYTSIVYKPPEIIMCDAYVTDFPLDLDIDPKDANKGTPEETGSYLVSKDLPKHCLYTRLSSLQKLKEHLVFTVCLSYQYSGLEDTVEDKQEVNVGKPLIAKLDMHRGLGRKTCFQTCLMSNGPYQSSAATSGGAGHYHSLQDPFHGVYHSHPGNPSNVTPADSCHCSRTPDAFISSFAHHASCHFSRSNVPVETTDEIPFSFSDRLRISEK

[2] = Solubility of the compound at pH 6.8; assay type: physicochemical; conditions: buffer
[3] = Intrinsic clearance in rat liver microsomes; assay type: ADME, Microsome; conditions: read-out: CLH
[4] = Protein binding in rat plasma; assay type: ADME, cell-free; conditions: read-out: PPB (converted)
[5] = molecular target: T1, Mucosa-associated lymphoid tissue lymphoma translocation protein 1; assay: Allosteric inhibition of MALT1-mediated T cell activation in human Jurkat cells assessed as decrease in PMA induced IL2 activation preincubated for 1 hr followed by addition of PMA measured after 5.5 hrs by luciferase reporter gene assay; assay type: cell-based
[6] = Inhibition of mixed lymphocyte reaction in human PBMC cells assessed as reduction in [3H]-thymidine incorporation measured after 5 days in presence of Il-7 by microbeta counting method; assay type: functional, cell-based
BMDM = assay: Cytotoxicity against mouse Bone marrow-derived macrophage cells assessed as reduction in cell viability by [3H]-thymidine incorporation assay; assay type: cell-based
[7] = Intrinsic clearance in mouse liver microsome; assay type: ADME; conditions: liver microsomes, read-out: CLH
[8] = Protein binding in mouse plasma; assay type: ADME, cell-free; conditions: read-out: PPB (converted)
OCI-Ly3 = assay: Antiproliferative activity against human OCI-LY3 cells assessed as assessed as reduction in colony formation incubated for 14 days by soft-agar assay; assay type: functional, cell-based; conditions: dose 19.5-10000 nM, time 14.0 day
BJAB = assay: Antiproliferative activity against human BJAB cells assessed as assessed as reduction in colony formation at 19.5 to 10000 nM incubated for 14 days by soft-agar assay; assay type: functional, cell-based; conditions: dose 19.5-10000 nM, time 14.0 day
[9] = Apparent permeability across apical to basolateral side in human Caco-2 cells; assay type: ADME, cell-based
[10] = molecular target: T2, Mucosa-associated lymphoid tissue lymphoma translocation protein 1 (Homo sapiens) (UniProt Q9UDY8); assay: Allosteric inhibition of MALT1 protease activity in human OCI-LY3 cells assessed as accumulation of uncleaved substrate CYLD incubated for 24 hrs by Western blot analysis; assay type: cell-based; conditions: OCILY3, filed as negative allosteric modulator, dose 50-5000 nM
T2 sequence (whole entry): T1 sequence (Q9UDY8 whole entry)

[11] = molecular target: T2, Mucosa-associated lymphoid tissue lymphoma translocation protein 1 (Homo sapiens); assay: Allosteric inhibition of MALT1 protease activity in human OCI-LY3 cells assessed as accumulation of uncleaved substrate RELB incubated for 24 hrs by Western blot analysis; assay type: cell-based; conditions: OCILY3, filed as negative allosteric modulator, dose 50-5000 nM
[12] = molecular target: T2, Mucosa-associated lymphoid tissue lymphoma translocation protein 1 (Homo sapiens); assay: Allosteric inhibition of MALT1 in human OCI-LY3 cells assessed as repression of IRF4 at 50 to 5000 nM incubated for 24 hrs by Western blot analysis; assay type: cell-based; conditions: OCILY3, filed as negative allosteric modulator, dose 50-5000 nM
[13] = Half-life in Balb/c mouse at 1 mg/kg, iv administered as cassette dosing; assay type: ADME, organism-based; conditions: in vivo
[14] = Half-life in Sprague-Dawley rat at 1 mg/kg, iv administered as cassette dosing; assay type: ADME, organism-based; conditions: in vivo
[15] = Volume of distribution at steady state in Balb/c mouse at 1 mg/kg, iv administered as cassette dosing; assay type: ADME, organism-based; conditions: in vivo, read-out: Vdss
[16] = Dose normalized AUC (0 to 24 hrs) in Sprague-Dawley rat at 3 mg/kg, po administered as cassette dosing; assay type: ADME, organism-based; conditions: in vivo
[17] = Dose normalized Cmax in Balb/c mouse at 3 mg/kg, po administered as cassette dosing; assay type: ADME, organism-based; conditions: in vivo
[18] = Dose normalized Cmax in Sprague-Dawley rat at 3 mg/kg, po administered as cassette dosing; assay type: ADME, organism-based; conditions: in vivo
[19] = Oral bioavailability in Balb/c mouse at 3 mg/kg administered as cassette dosing; assay type: ADME, organism-based; conditions: in vivo
[20] = Oral bioavailability in Sprague-Dawley rat at 3 mg/kg administered as cassette dosing; assay type: ADME, organism-based; conditions: in vivo
[21] = Drug concentration in Balb/c mouse blood at 10 mg/kg, po BID by LC-MS/MS analysis; assay type: ADME, organism-based; conditions: in vivo, read-out: Drug uptake
[22] = Drug concentration in Balb/c mouse blood at 30 mg/kg, po BID by LC-MS/MS analysis; assay type: ADME, organism-based; conditions: in vivo, read-out: Drug uptake
[23] = Drug concentration in Balb/c mouse blood at 30 mg/kg, po BID administered at 12 hrs interval immunized post 1 hr first treatment measured after 12 hrs post second dose by LC-MS/MS analysis; assay type: ADME, organism-based; conditions: whole blood, read-out: Drug uptake
[24] = Drug concentration in Balb/c mouse blood at 100 mg/kg, po BID administered at 12 hrs interval immunized post 1 hr first treatment measured after 12 hrs post second dose by LC-MS/MS analysis; assay type: ADME, organism-based; conditions: whole blood, read-out: Drug uptake
Mus musculus [25] = assay: Anti-autoimmune disease activity in Balb/c mouse assessed as reduction in anti-DNP induced IgG producing B cells at 30 mg/kg, po administered twice at 12 hrs interval immunized post 1 hr first treatment measured after 8 days by ELISA relative to control; assay type: functional, organism-based; conditions: time 8.0 day
[26] = Tmax in human TMD8 cells xenografted SCID mouse at 100 mg/kg, po qd by UPLC-MS/MS analysis; assay type: ADME, organism-based; conditions: in vivo
Mus musculus [27] = assay: Immunomodulatory activity in human TMD8 cells xenografted SCID mouse assessed as decrease in IL-10 production in tumor at 100 mg/kg, po; assay type: functional, organism-based
Mus musculus [28] = assay: Immunomodulatory activity in human TMD8 cells xenografted SCID mouse assessed as increase in levels of uncleaved BCL10 in tumor at 100 mg/kg, po; assay type: functional, organism-based
Mus musculus [29] = assay: Immunomodulatory activity in human TMD8 cells xenografted po dosed SCID mouse assessed as increase in levels of uncleaved BCL10 in tumor administered twice daily for 2 weeks; assay type: functional, organism-based; conditions: dose mg/kg 10-100, time 2.0 weeks

`C[C@H]1COC[C@H](C)N1c1c(NC(=O)Nc2ccnc(C(F)(F)F)c2)cnc2cc(Cl)nn12` gave an IC50 [1] of 160 nM, a solubility [2] of 266 µM (≈ 125 µg/mL) and a microsomal CLint [3] of 42 µL/min/mg. It also gave a fraction unbound [4] of 0.013, an IC50 [5] of 180 nM and an IC50 [6] of 190 nM. For the same compound, the IC50 (BMDM) was greater than 10000 nM, the microsomal CLint [7] was 82 µL/min/mg and the fraction unbound [8] was 0.011. For the same compound, the Activity (OCI-Ly3) was “Dose-dependent effect”, the Activity (BJAB) was “inactive” and the Papp A→B [9] was 1.47 ×10⁻⁶ cm/s. The inhibition [10] was “Dose-dependent effect”, the inhibition [11] was “Dose-dependent effect” and the inhibition [12] was “Active”. The half-life [13] was 1.9 h, the half-life [14] was 3.2 h and the Vd [15] was 1.5 L/kg. The AUC/dose [16] was 547 nM·h, the Cmax/dose [17] was 549 nM and the Cmax/dose [18] was 46 nM. For the same compound, the bioavailability [19] was 99%, the bioavailability [20] was 61% and the concentration [21] was 2600 nM. For the same compound, the concentration [22] was 9300 nM, the concentration at 12 h [23] was 120 nM and the concentration at 12 h [24] was 690 nM. For the same compound, the Activity (Mus musculus [25]) was “Active”, the Tmax [26] was 2 h and the Activity (Mus musculus [27]) was “Active”. For the same compound, the Activity (Mus musculus [28]) was “Active” and the Activity (Mus musculus [29]) was “Dose-dependent effect”.
